Measurements: ChEMBL document CHEMBL1157212, “Classification of estrogen receptor-beta ligands on the basis of their binding affinities using support vector machine and linear discriminant analysis” (Eur J Med Chem, 2008)

Molecular target: Estrogen receptor beta (Homo sapiens, UniProt Q92731)
Sequence (Q92731 whole entry): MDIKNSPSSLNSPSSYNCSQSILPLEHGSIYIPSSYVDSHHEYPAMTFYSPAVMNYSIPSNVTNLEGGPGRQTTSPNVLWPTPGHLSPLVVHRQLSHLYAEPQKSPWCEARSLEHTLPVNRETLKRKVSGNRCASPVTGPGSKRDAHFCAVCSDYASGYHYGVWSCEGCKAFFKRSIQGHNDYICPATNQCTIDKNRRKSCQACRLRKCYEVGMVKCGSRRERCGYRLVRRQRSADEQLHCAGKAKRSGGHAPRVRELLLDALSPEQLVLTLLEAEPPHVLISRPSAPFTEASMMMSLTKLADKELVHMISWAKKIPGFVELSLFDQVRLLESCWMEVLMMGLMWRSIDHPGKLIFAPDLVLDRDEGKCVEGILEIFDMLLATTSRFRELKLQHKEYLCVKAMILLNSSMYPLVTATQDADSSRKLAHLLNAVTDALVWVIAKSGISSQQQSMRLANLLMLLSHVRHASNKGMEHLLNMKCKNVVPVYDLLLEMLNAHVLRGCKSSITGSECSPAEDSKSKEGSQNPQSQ
Description: Binding affinity to ERbeta

Row | IC50 | SMILES
1 | 5000 nM | O=C(O)c1cc(O)cc2nc(-c3ccc(O)cc3)oc12
2 | 142 nM | C/C=C/c1cc(O)cc2nc(-c3ccc(O)cc3)oc12
3 | 1.4 nM | Oc1ccc(-c2nc3cc(O)cc(Br)c3o2)c(C(F)(F)F)c1
